Among the data in patent US6683103B2, “Sulfonamides for treatment of endothelin-mediated disorders” (Texas Biotechnology Corporation, priority 1997, dated 2004) are IC50 values, retold here.

Where two headings read alike, the source gives them in different places.

For one assay, the target named is T1, human ETA receptors (Homo sapiens, UniProt P25101).
T1 construct: endogenous in cells; host or cells: TE 671 cells (ATCC HTB 139)
T1 sequence (P25101 21-427): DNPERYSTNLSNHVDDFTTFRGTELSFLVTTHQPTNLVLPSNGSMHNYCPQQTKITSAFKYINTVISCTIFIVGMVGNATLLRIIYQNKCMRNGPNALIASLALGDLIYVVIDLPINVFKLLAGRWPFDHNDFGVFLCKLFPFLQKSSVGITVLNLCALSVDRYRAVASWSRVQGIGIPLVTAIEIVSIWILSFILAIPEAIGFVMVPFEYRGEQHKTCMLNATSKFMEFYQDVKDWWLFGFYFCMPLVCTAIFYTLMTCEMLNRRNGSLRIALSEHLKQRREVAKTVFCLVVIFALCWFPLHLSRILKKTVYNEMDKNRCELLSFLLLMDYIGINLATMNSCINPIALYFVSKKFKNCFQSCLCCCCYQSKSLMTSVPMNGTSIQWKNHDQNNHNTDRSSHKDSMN
The experiment in a line: Binding Test #1: inhibition of 125I-ET-1 binding to ETA receptors (TE 671 cell membranes). The note with it: Table 1, read-out: ETA. Summed up: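 Membranes from TE 671 cells (up to 8 μg protein) incubated with ¹²⁵I-ET-1 and compound (1 nM–100 μM final) in 30 mM HEPES pH 7.4, 150 mM NaCl, 5 mM MgCl2, 0.5% bacitracin, 16–18 h at 4 °C or alternatively at 24 °C. Nonspecific binding with 80 nM ET-1; bound pellet gamma-counted, % inhibition calculated, usually triplicate.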

The target in the next assay is T2, human ETB receptor (Homo sapiens, UniProt P24530).
T2 construct: expressed in transfected cells; host or cells: COS7 cells
T2 sequence (P24530 27-442): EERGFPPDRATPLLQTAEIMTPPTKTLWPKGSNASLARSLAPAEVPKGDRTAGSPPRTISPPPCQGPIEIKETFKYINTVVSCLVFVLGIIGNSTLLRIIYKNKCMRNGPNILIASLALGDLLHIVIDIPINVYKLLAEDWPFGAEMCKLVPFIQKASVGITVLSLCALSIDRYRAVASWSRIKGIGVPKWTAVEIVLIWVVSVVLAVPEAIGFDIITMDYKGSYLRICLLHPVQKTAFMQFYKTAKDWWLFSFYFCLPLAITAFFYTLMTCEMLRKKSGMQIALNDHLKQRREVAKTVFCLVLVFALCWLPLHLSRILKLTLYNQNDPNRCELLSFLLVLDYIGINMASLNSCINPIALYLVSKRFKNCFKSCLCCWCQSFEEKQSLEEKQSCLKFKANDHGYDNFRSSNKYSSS
The experiment in a line: Binding Test #2: inhibition of 125I-ET-1 binding to ETB receptors (transfected COS7 cell membranes). As to conditions: Table 1, read-out: ETB. In outline: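 Competition with 125I-ET-1 for binding to membranes from COS7 cells transfected with human ETB receptor, used at 1 μg/50 μl binding buffer. Membranes prepared in HEPES pH 7.4 with aprotinin, including a DNase/MnCl2 step at 37 °C for 30 min.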

On to `Cc1ccc(-c2ccc(S(=O)(=O)Nc3onc(C)c3Br)s2)o1` [N-(4-bromo-3-methyl-5-isoxazolyl)-5-(2-methyfuranyl)thiophene-2-sulfonamide], for which the values for the IC50 at human ETA receptors († incubation at 24° C.) and at human ETB receptor († incubation at 24° C.) were 32 µM and 7.5 µM, respectively.

For the compound `Cc1ccccc1-c1ccc(S(=O)(=O)Nc2onc(C)c2Br)s1` [N-(4-bromo-3-methyl-5-isoxazolyl)-5-(2-tolyl)thiophene-2-sulfonamide], the IC50 at human ETA receptors (incubation at 4° C.) came out at 0.432 µM; on human ETB receptor (incubation at 4° C.) it was 0.313 µM.

For the compound `Cc1noc(NS(=O)(=O)c2ccc(-c3cccs3)s2)c1Br` [N-(4-bromo-3-methyl-5-isoxazolyl)-5-(2′-thienyl)thiophene-2-sulfonamide], the IC50 was 5.1 µM at human ETA receptors (incubation at 4° C.) and 0.363 µM at human ETB receptor (incubation at 4° C.).

With `Cc1noc(NS(=O)(=O)c2ccc(C#CC(C)(C)C)s2)c1Br` [N-(4-bromo-3-methyl-5-isoxazolyl)-5-(3,3-dimethylbutyn-1-yl)thiophene-2-sulfonamide], the IC50 at human ETA receptors (incubation at 4° C.) was 1.12 µM; at human ETA receptors († incubation at 24° C.) it was 7.24 µM; at human ETB receptor (incubation at 4° C.) it was 24 µM; on human ETB receptor († incubation at 24° C.) it was 35.5 µM.

As for `Cc1noc(NS(=O)(=O)c2ccc(-c3cccc(N)c3)s2)c1Br` [N-(4-bromo-3-methyl-5-isoxazolyl)-5-(3-aminophenyl)thiophene-2-sulfonamide], the IC50 at human ETA receptors (incubation at 4° C.) turned out to be 0.537 µM; at human ETA receptors († incubation at 24° C.) it was 1.44 µM; at human ETB receptor (incubation at 4° C.), 1.07 µM; at human ETB receptor († incubation at 24° C.) it was 2.63 µM.

With `COc1cccc(-c2ccc(S(=O)(=O)Nc3onc(C)c3Br)s2)c1` [N-(4-bromo-3-methyl-5-isoxazolyl)-5-(3-methoxyphenyl)thiophene-2-sulfonamide], the IC50 is 3.26 µM on human ETA receptors (incubation at 4° C.), 23.4 µM at human ETA receptors († incubation at 24° C.), 0.776 µM on human ETB receptor (incubation at 4° C.) and 4.7 µM on human ETB receptor († incubation at 24° C.).

On to `Cc1noc(NS(=O)(=O)c2ccc(-c3cccc([N+](=O)[O-])c3)s2)c1Br` [N-(4-bromo-3-methyl-5-isoxazolyl)-5-(3-nitrophenyl)thiophene-2-sulfonamide], for which the IC50 at human ETA receptors († incubation at 24° C.) was determined as 26 µM; on human ETB receptor († incubation at 24° C.), 4.5 µM.

`Cc1noc(NS(=O)(=O)c2ccc(-c3ccsc3)s2)c1Br` [N-(4-bromo-3-methyl-5-isoxazolyl)-5-(3-thienyl)thiophene-2-sulfonamide]: the IC50 at human ETA receptors (incubation at 4° C.) came to 4.49 µM; on human ETB receptor (incubation at 4° C.), 0.38 µM.

As for `Cc1cccc(-c2ccc(S(=O)(=O)Nc3onc(C)c3Br)s2)c1` [N-(4-bromo-3-methyl-5-isoxazolyl)-5-(3-tolyl)thiophene-2-sulfonamide], the IC50 on human ETA receptors († incubation at 24° C.) came to 15 µM; at human ETB receptor († incubation at 24° C.) it was 4.2 µM.

As to `Cc1noc(NS(=O)(=O)c2ccc(-c3ccc(C(=O)O)cc3)s2)c1Br` [N-(4-bromo-3-methyl-5-isoxazolyl)-5-(4-carboxyphenyl)thiophene-2-sulfonamide], the IC50 at human ETA receptors († incubation at 24° C.) was above 100 µM; on human ETB receptor († incubation at 24° C.) it was 31 µM.

In the case of `CCc1ccc(-c2ccc(S(=O)(=O)Nc3onc(C)c3Br)s2)cc1` [N-(4-bromo-3-methyl-5-isoxazolyl)-5-(4-ethylphenyl)thiophene-2-sulfonamide], the figures for the IC50 on human ETA receptors (incubation at 4° C.) and on human ETB receptor (incubation at 4° C.) were 3.23 µM and 0.0855 µM, respectively.

On to `COc1ccc(-c2ccc(S(=O)(=O)Nc3onc(C)c3Br)s2)cc1` [N-(4-bromo-3-methyl-5-isoxazolyl)-5-(4-methoxyphenyl)thiophene-2-sulfonamide], for which the IC50 on human ETA receptors (incubation at 4° C.) came to 8.69 µM; on human ETA receptors († incubation at 24° C.), 26.3 µM; at human ETB receptor (incubation at 4° C.), 0.363 µM; on human ETB receptor († incubation at 24° C.), 2.4 µM.

Regarding `COC(=O)c1ccc(-c2ccc(S(=O)(=O)Nc3onc(C)c3Br)s2)cc1` [N-(4-bromo-3-methyl-5-isoxazolyl)-5-(4-methyoxycarbonylphenyl)thiophene-2-sulfonamide], the IC50 is above 100 µM at human ETA receptors († incubation at 24° C.) and 17 µM on human ETB receptor († incubation at 24° C.).

Consider `Cc1ccc(NC(=O)c2ccc(S(=O)(=O)Nc3onc(C)c3Br)s2)cc1` [N-(4-bromo-3-methyl-5-isoxazolyl)-5-(4-tolyl)aminocarbonyl)thiophene-2-sulfonamide], for which the IC50 on human ETA receptors († incubation at 24° C.) was 28 µM; at human ETB receptor († incubation at 24° C.), 8.6 µM.
